From patent US8569301B2, “6, 6-dioxo-6-thia-1, 4-diaza-naphthalenes as herbicides” (Syngenta Limited, priority 2009, dated 2013)

Tested on: crop and representative weed species
Test: Example B2 herbicidal action post-emergence (Table B2)
Format: in vivo
Conditions: application post-emergence, rate 500 g/ha, evaluated after 15 days, score 10 to 0; for herbicidal damage score AMARE (10=total damage to plant; 0=no damage to plant): AMARE = Amaranthus retroflexus; for herbicidal damage score ECHCG (10=total damage to plant; 0=no damage to plant): ECHCG = Echinochloa crus-galli; for herbicidal damage score IPOHE (10=total damage to plant; 0=no damage to plant): IPOHE = Ipomea hederaceae; for herbicidal damage score SETFA (10=total damage to plant; 0=no damage to plant): SETFA = Setaria faberi
Method: Seeds of crop and representative weed species were sown in standard soil in pots. After cultivation for 14 days under controlled conditions in a glasshouse (at 22/16° C., day/night; 16 hours light; 65% humidity), the plants were sprayed. The spray solution was prepared by dissolving the technical active ingredient in acetone containing 10.56 wt % Emulsogen EL, 42.22 wt % N-methylpyrrolidone and 2.22 wt % DPG-monoethyl ether to give a 5% stock solution. This was then diluted with water containing 0.2% (v/v) of the adjuvant X-77 to give the desired treatment concentration.
The test plants were then grown on under controlled conditions in a glasshouse (at 22/16° C., day/night; 16 hours light; 65% humidity) and watered twice daily. After 15 days the test was evaluated and the assessed scores, from 10 to 0, are tabulated in Table B2 (10=total damage to plant; 0=no damage to plant).

| Structure (SMILES) | herbicidal damage score AMARE (10=total damage to plant; 0=no damage to plant) | herbicidal damage score ECHCG (10=total damage to plant; 0=no damage to plant) | herbicidal damage score IPOHE (10=total damage to plant; 0=no damage to plant) | herbicidal damage score SETFA (10=total damage to plant; 0=no damage to plant) |
| --- | --- | --- | --- | --- |
| CCCC1c2nccnc2C(O)=C(c2c(F)ccc(Br)c2Cl)S1(=O)=O (stereo not shown) [Compound E22] | 7 | 0 | 7 | 2 |
| CC1(C)c2nccnc2C(O)=C(c2cc(F)ccc2Cl)S1(=O)=O [Compound F3] | 7 | 4 | 8 | 4 |
| O=S1(=O)C(c2c(F)ccc(Br)c2Cl)=C(O)c2nccnc2C12CCCC2 [Compound F8] | 5 | 6 | 8 | 5 |
| C#CCC1(C)c2nccnc2C(O)=C(c2c(Cl)cccc2C(F)(F)F)S1(=O)=O (stereo not shown) [Compound F10, 7-(2-chloro-6-trifluoromethyl-phenyl)-5-methyl-6,6-dioxo-5-prop-2-ynyl-5,6-dihydro-6-thia-1,4-diaza-naphthalen-8-ol] | 8 | 7 | 9 | 8 |
